Data: patent US10980739B2, “Treatment of a disease of the gastrointestinal tract with a chemokine/chemokine receptor inhibitor” (Progenity, Inc., priority 2016, dated 2021)

Experiment: Tacrolimus tissue pharmacokinetics, oral versus intra-cecal ingestible device delivery
Assay type: in vivo, Yorkshire-Cross farm swine
Conditions: swine, intra-cecal ingestible device vs oral, 12 hours post-dose; FIG. 76
Procedure: No further randomization procedure was employed.
Animals in Group 1 received an ingestible device containing 0.8 mL of vehicle solution (80% alcohol, 20% HCO-60). Animals in Group 2 received orally […] liquid formulation of tacrolimus at 4 mg/0.8 mL per animal (Prograf: 5 mg/mL). Animals in Group 3 received intra-cecally an ingestible device containing tacrolimus at 1 mg in 0.8 mL per ingestible device. Animals in Group 4 received intra-cecally an ingestible device containing tacrolimus at 2 mg in 0.8 mL per ingestible device. Animals in Group 5 received intra-cecally an ingestible device containing tacrolimus at 4 mg in 0.8 mL per ingestible device. […]
Approximately 200˜400 mg of rectal content were collected, if available, with a fecal swab (Copan Diagnostics Nylon Flocked Dry Swabs, 502CS01). The fecal swab was pre-weighed and weighed after collection in the collection tube (Sterile Tube and Cap No Media, PFPM913S), and the sample weight was recorded. […]
For tissue necropsy, small intestine fluid and cecal fluid were collected separately from all the animals into two separate square plastic bottles, and stored at −20° C. The length and diameter of the cecum and the colon was measured from one animal in each group and recorded for reference. […] All samples were weighed, and the tissue sample weights were recorded. […]

SMILES: C=CC[C@@H]1/C=C(\C)C[C@H](C)C[C@H](OC)[C@H]2O[C@@](O)(C(=O)C(=O)N3CCCC[C@H]3C(=O)O[C@H](/C(C)=C/[C@@H]3CC[C@@H](O)[C@H](OC)C3)[C@H](C)[C@@H](O)CC1=O)[C@H](C)C[C@@H]2OC [tacrolimus]
- mean concentration of tacrolimus in the cecum tissue and the proximate colon tissue: higher
